In US9248145B2, “Two alkylresorcinol synthase genes from sorghum; cloning, expression, transformation and characterization” (The United States of America, as represented by The …, priority 2010, dated 2016):
Blank lines part the entries; values can stand above or below the compound they belong to.

What was measured:
recombinant ARS2 [1] = biological target: T1, recombinant ARS2 (Sorghum bicolor, UniProt C5YRS1); test: Polyketide synthase enzyme assay, 5-alkylresorcinol formation (GC-MS, m/z 268); type: biochemical; details: for activity as starter unit (in words): malonyl-CoA extender
T1 sequence (C5YRS1 entry or part of it): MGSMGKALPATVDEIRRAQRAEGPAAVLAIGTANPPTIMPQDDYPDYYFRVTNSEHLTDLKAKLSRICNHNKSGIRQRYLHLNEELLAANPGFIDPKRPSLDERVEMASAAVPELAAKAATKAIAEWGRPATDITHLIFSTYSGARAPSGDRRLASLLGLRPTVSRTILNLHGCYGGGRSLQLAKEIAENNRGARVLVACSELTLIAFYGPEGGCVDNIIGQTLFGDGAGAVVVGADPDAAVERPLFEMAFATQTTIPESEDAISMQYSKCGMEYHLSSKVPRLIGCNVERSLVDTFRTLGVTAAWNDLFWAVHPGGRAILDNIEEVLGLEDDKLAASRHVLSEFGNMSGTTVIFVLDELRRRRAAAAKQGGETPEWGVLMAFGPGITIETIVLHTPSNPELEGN
Experimental: (§1) Reactions were quenched by addition of 10 μL of 20% HCl, and products were extracted by phase partitioning with 1 ml of ethyl acetate. The organic phase (upper layer) obtained by centrifugation at ˜14,000×g for 1 min was transferred to a fresh tube, dried under vacuum, and subsequently analyzed by GC-EI-MS as a trimethysilyl (TMS) derivative.
(§2) Reactions were quenched by addition of 10 μL of 20% HCl. The products were extracted as described above, and were separated by thin layer chromatography (silica gel 60 F254; chloroform:ethyl acetate=70:30; 15 min). Product detection and formation was quantified through the use of the Cyclone storage phosphor system and OptiQuant 3.0 image analysis software (PerkinElmer, Wellesley, Mass.).
(§3) Recombinant enzyme studies were next performed to examine substrate preferences for the 3 putative type III PKS enzymes maximally expressed in root hairs. […] Acyl-CoAs varying in length and degree of saturation were tested in enzymatic assays with all three recombinant enzymes, as well as the non-linear starter units benzoyl-CoA, isovaleryl-CoA, and isobutryl-CoA used by several other plant type III PKS enzymes (Austin and Noel, supra).

recombinant ARS1 [2] = biological target: T2, recombinant ARS1 (Sorghum bicolor, UniProt C5Y4Z2); test: as above; type: biochemical; details: for activity as starter unit (in words): malonyl-CoA extender
T2 sequence (C5Y4Z2 entry or part of it): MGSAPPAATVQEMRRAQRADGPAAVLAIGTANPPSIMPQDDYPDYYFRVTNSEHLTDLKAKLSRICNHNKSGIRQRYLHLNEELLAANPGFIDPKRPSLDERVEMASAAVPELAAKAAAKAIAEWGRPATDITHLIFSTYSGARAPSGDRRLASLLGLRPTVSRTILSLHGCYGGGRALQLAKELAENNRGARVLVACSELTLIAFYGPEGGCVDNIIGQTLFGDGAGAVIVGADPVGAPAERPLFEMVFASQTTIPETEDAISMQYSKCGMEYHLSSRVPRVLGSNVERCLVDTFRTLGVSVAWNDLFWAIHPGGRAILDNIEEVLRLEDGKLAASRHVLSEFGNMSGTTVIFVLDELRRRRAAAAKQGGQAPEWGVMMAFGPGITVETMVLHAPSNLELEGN
Experimental: as §1, §2, §3

recombinant ARS2 [3] = biological target: T1, recombinant ARS2; test: Steady-state kinetics with [2-14C]-malonyl-CoA, TLC/phosphor imaging; type: biochemical; details: for Km: same conditions as kcat; for kcat: starter kinetics: 40 μM [2-14C]-malonyl-CoA, 1.43-10 μM starter, malonyl-CoA kinetics: 25 μM palmitoleoyl-CoA starter, pH 7.0, 30° C., 5 min
Experimental: (§4) Enzyme assays, performed in triplicate, for starter unit CoA kinetics contained 100 mM potassium phosphate buffer (pH 7.0), 40 μM [2-^14C]-malonyl-CoA (50-60 mCi/mmol, 1.85-2.22 GBq/mmol; American Radiolabeled Chemicals, Inc., St. Louis, Mo.), 1.43-10 μM starter unit (e.g., palmitoyl-CoA), and 0.75 μg protein in a 200 μL volume at 30° C. for 5 min. Enzyme assays for malonyl-CoA kinetics contained 100 mM potassium phosphate buffer (pH 7.0), 1.66-25 μM [2-^14C]-malonyl-CoA, 25 μM starter unit (palmitoleoyl-CoA), and 0.75 μg protein in a 200 μL volume at 30° C. for 5 min. Reactions were quenched by addition of 10 μL of 20% HCl. The products were extracted as described above, and were separated by thin layer chromatography (silica gel 60 F254; chloroform:ethyl acetate=70:30; 15 min). Product detection and formation was quantified through the use of the Cyclone storage phosphor system and OptiQuant 3.0 image analysis software (PerkinElmer, Wellesley, Mass.). Data were fit to the Michaelis-Menten equation using the Sigma Plot 9.01 enzyme kinetics module (Systat, Inc., San Jose, Calif.).

recombinant ARS1 [4] = biological target: T2, recombinant ARS1; test: as above; type: biochemical; details: for Km: same conditions as kcat; for kcat: starter kinetics: 40 μM [2-14C]-malonyl-CoA, 1.43-10 μM starter, malonyl-CoA kinetics: 25 μM palmitoleoyl-CoA starter, pH 7.0, 30° C., 5 min
Experimental: as §4

recombinant Os10g08620 = test: Polyketide synthase enzyme assay, alkylresorcinol synthase activity; type: biochemical, Oryza sativa
Experimental: (§5) Polyketide synthase enzyme assays, performed in triplicate, contained 100 mM potassium phosphate buffer (pH 7.0), 40 μM malonyl-CoA, 25 μM starter unit (e.g., palmitoyl-CoA), and 2 μg protein in a 200 μL volume at 30° C. for 15 min. […] Reactions were quenched by addition of 10 μL of 20% HCl, and products were extracted by phase partitioning with 1 ml of ethyl acetate. The organic phase (upper layer) obtained by centrifugation at ˜14,000×g for 1 min was transferred to a fresh tube, dried under vacuum, and subsequently analyzed by GC-EI-MS as a trimethysilyl (TMS) derivative. Product formation was quantified using selective ion monitoring at m/z 268, a fragment ion common to all alkylresorcinols, generated by benzylic cleavage of the alkyl side chain. The identification of the m/z 268 [(5-methyl-1,3 phenylene)bis(oxy)bis(TMS)]^+ base ion and the parent [M]^+ provide confirmation of the 5-alkylresorcinolic structure as well as the length and degree of saturation of the associated side chain (Occolowitz, 1964. Anal. Chem. 36:2177-2181; Suzuki et al. 1996, supra; Suzuki at al. 2003, supra).
as §4
(§6) To explore this possibility, the predicted open reading frames encoded by O. sativa (cv. Nipponbare) LOC_Os05g12180, LOC_Os10g08620, and LOC_Os10g07040, were also expressed in E. coli as N-terminal polyhistidine fusions, and tested for alkylresorcinol synthase activity with the same panel of fatty acyl-CoA substrates used for recombinant ARS1 and ARS2 enzymatic studies (FIG. 4).

recombinant Os10g07040 = test: as above; type: biochemical, Oryza sativa
Experimental: as §5, §4, §6

recombinant Os05g12180 = test: as above; type: biochemical, Oryza sativa
Experimental: as §5, §4, §6

[5] = 25 μM starter unit, 40 μM malonyl-CoA, pH 7.0, 30° C., 15 min

SMILES: CC(C)(COP(=O)(O)OP(=O)(O)OC[C@H]1O[C@@H](n2cnc3c(N)ncnc32)[C@H](O)[C@@H]1OP(=O)(O)O)[C@@H](O)C(=O)NCCC(=O)NCCSC(=O)c1ccccc1 [benzoyl-CoA]
activity as starter unit (in words) (recombinant ARS2 [1]): No activity
activity as starter unit (in words) (recombinant ARS1 [2]): No activity

SMILES: CCCCCC/C=C\CCCCCCCC(=O)SCCNC(=O)CCNC(=O)[C@H](O)C(C)(C)COP(=O)(O)OP(=O)(O)OC[C@H]1O[C@@H](n2cnc3c(N)ncnc32)[C@H](O)[C@@H]1OP(=O)(O)O [C16:1-CoA, palmitoleoyl-CoA]
Km (recombinant ARS2 [3]): 3.6 µM
kcat (recombinant ARS2 [3]): 0.0233 s⁻¹
Km (recombinant ARS1 [4]): 2.3 µM
kcat (recombinant ARS1 [4]): 0.0183 s⁻¹
maximal 5-alkylresorcinol-forming activity (recombinant ARS2 [1]; [5]): 60.1 pkat mg^1

SMILES: CCCCC/C=C\C/C=C\C/C=C\C/C=C\CCCC(=O)SCCNC(=O)CCNC(=O)[C@H](O)C(C)(C)COP(=O)(O)OP(=O)(O)OC[C@H]1O[C@@H](n2cnc3c(N)ncnc32)[C@H](O)[C@@H]1OP(=O)(O)O [arachidonoyl-CoA]
activity as starter unit (in words) (recombinant Os10g08620): No activity
activity as starter unit (in words) (recombinant Os10g07040): No activity
activity as starter unit (in words) (recombinant Os05g12180): No activity

SMILES: CCCCCCCC(=O)SCCNC(=O)CCNC(=O)[C@H](O)C(C)(C)COP(=O)(O)OP(=O)(O)OC[C@H]1O[C@@H](n2cnc3c(N)ncnc32)[C@H](O)[C@@H]1OP(=O)(O)O [capryloyl-CoA]
triketide pyrone derailment product, share of the total moles product derived from the starter (recombinant ARS1 [2]): ~33%

SMILES: CCCCCCCCCCCCCCCC(=O)SCCNC(=O)CCNC(=O)[C@H](O)C(C)(C)COP(=O)(O)OP(=O)(O)OC[C@H]1O[C@@H](n2cnc3c(N)ncnc32)[C@H](O)[C@@H]1OP(=O)(O)O [C16:0-CoA, palmitoyl-CoA]
Km (recombinant ARS2 [3]): 4.1 µM
kcat (recombinant ARS2 [3]): 0.0183 s⁻¹
Km (recombinant ARS1 [4]): 2.3 µM
kcat (recombinant ARS1 [4]): 0.0132 s⁻¹

SMILES: CC(C)(COP(=O)(O)OP(=O)(O)OC[C@H]1O[C@@H](n2cnc3c(N)ncnc32)[C@H](O)[C@@H]1OP(=O)(O)O)[C@@H](O)C(=O)NCCC(=O)NCCSC(=O)CC(=O)O [Malonyl-CoA, malonyl-CoA]
Km (recombinant ARS2 [3]): 5.8 µM
kcat (recombinant ARS2 [3]): 0.0123 s⁻¹
Km (recombinant ARS1 [4]): 5.2 µM
kcat (recombinant ARS1 [4]): 0.0148 s⁻¹

The next lines start with the values.

activity as starter unit (in words) (recombinant ARS2 [1]): utilized
activity as starter unit (in words) (recombinant ARS1 [2]): utilized
SMILES: C=CC/C=C\C/C=C\CCCCCCCCSCCNC(=O)CCNC(=O)[C@H](O)C(C)(C)COP(=O)(O)OP(=O)(O)OC[C@H]1O[C@@H](n2cnc3c(N)ncnc32)[C@H](O)[C@@H]1OP(=O)(O)O [hexadecatrienyl-CoA, (9Z,12Z)-Hexadeca-9,12,15-trienyl-CoA]

activity as starter unit (in words) (recombinant ARS2 [1]): No activity
activity as starter unit (in words) (recombinant ARS1 [2]): No activity
SMILES: CC(C)C(=O)SCCNC(=O)CCNC(=O)[C@H](O)C(C)(C)COP(=O)(O)OP(=O)(O)OC[C@H]1O[C@@H](n2cnc3c(N)ncnc32)[C@H](O)[C@@H]1OP(=O)(O)O [isobutyryl-CoA]

triketide pyrone derailment product, share of the total moles product derived from the starter (recombinant ARS2 [1]): < 5%
triketide pyrone derailment product, share of the total moles product derived from the starter (recombinant ARS1 [2]): ~15%
maximal 5-alkylresorcinol-forming activity (recombinant ARS1 [2]; [5]): 81.0 pkat mg^−1
SMILES: CCCCCCCCCCCCCC(=O)SCCNC(=O)CCNC(=O)[C@H](O)C(C)(C)COP(=O)(O)OP(=O)(O)OC[C@H]1O[C@@H](n2cnc3c(N)ncnc32)[C@H](O)[C@@H]1OP(=O)(O)O [myristoyl-CoA]

activity as starter unit (in words) (recombinant Os10g08620): No activity
activity as starter unit (in words) (recombinant Os10g07040): No activity
activity as starter unit (in words) (recombinant Os05g12180): No activity
triketide pyrone derailment product, share of the total moles product derived from the starter (recombinant ARS2 [1]): approximately 9%
triketide pyrone derailment product, share of the total moles product derived from the starter (recombinant ARS1 [2]): approximately 9%
SMILES: CCCCCC(=O)SCCNC(=O)CCNC(=O)[C@H](O)C(C)(C)COP(=O)(O)OP(=O)(O)OC[C@H]1O[C@@H](n2cnc3c(N)ncnc32)[C@H](O)[C@@H]1OP(=O)(O)O [hexanoyl-CoA]

activity as starter unit (in words) (recombinant ARS2 [1]): No activity
activity as starter unit (in words) (recombinant ARS1 [2]): No activity
SMILES: CC(C)CC(=O)SCCNC(=O)CCNC(=O)[C@H](O)C(C)(C)COP(=O)(O)OP(=O)(O)OC[C@H]1O[C@@H](n2cnc3c(N)ncnc32)[C@H](O)[C@@H]1OP(=O)(O)O [isovaleryl-CoA]
